Source: patent publication US8288352B2, “Auristatins having an aminobenzoic acid unit at the N terminus” (priority 2004, dated 2012)
Where two headings read alike, the source gives them in different places. Non-standard residues stand in square brackets, D forms with d. Residues, ends and D or L forms follow the SMILES beside them. *: point of attachment. Dolaproine = CO[C@@H]([C@@H]1CCCN1)[C@@H](C)C(=O)O; Dil = CC[C@H](C)[C@H](NC)[C@@H](CC(=O)O)OC; X1 = C[C@@H](N*)[C@@H](O)c1ccccc1; NMeV = CN[C@H](C(=O)O)C(C)C

What was measured:
[1] = system: Karpas-299 anaplastic large cell lymphoma cell line (CD30+); experiment: In vitro cytotoxicity (alamarBlue) on Karpas 299; format: cell-based, human
Experimental: (§1) Table 6 summarizes cytotoxic activity of MMAF, 100, 103, 107 on H3396 human breast carcinoma and Karpas-299 anaplastic large cell lymphoma cell lines assayed. To evaluate the cytotoxicity of Compounds 100, 103, and 107, cells were seeded at approximately 10,000 per well in 150 μl of culture medium containing graded doses of Compounds 100, 103, and 107 in quadruplicates at the initiation of assay. Cytotoxicity assays were usually carried out for 96 hours. Fifty μl of the alamarBlue™ dye was added to each well during the last 4 to 6 hours of the incubation to assess viable cells at the end of culture. Dye reduction was determined by fluorescence spectrometry using the excitation and emission wavelengths of 535 nm and 590 nm, respectively. For analysis, the extent of alamarBlue™ reduction by the treated cells was compared to that of the untreated control cells.

[2] = system: H3396 human breast carcinoma; experiment: In vitro cytotoxicity (alamarBlue) on H3396; format: cell-based; details: read-out: IC50 values
Experimental: as §1

[3] = karpas 299, 96 hours, alamarBlue, read-out: IC50 values
[4] = Homo sapiens, KARPAS-299, 96 h, read-out: IC50 values

Row | Compound | IC50 [1, 3] [nM] | IC50 ([2]; H3396, 96 hours, alamarBlue) [nM] | IC50 [1, 4] [nM] | IC50 ([2]; Homo sapiens, H3396, 96 h) [nM] | IC50 ([1]; cAC10 conjugates, all 4 drugs/Ab, CD30+ cell line Karpas 299) [ng/mL]
1 | CC[C@H](C)[C@@H]([C@@H](CC(=O)N1CCC[C@H]1[C@H](OC)[C@@H](C)C(=O)N[C@@H](Cc1ccccc1)C(=O)O)OC)N(C)C(=O)[C@@H](NC(=O)[C@@H](NC)C(C)C)C(C)C [MMAF, N-methylvaline-valine-dolaisoleuine-dolaproine-phenylalanine, reference compound] (H-[NMeV]V[Dil][Dolaproine]F-OH) | 130 | 104 | – | – | –
2 | CC[C@H](C)[C@@H]([C@@H](CC(=O)N1CCC[C@H]1[C@H](OC)[C@@H](C)C(=O)N[C@@H](Cc1ccccc1)C(=O)O)OC)N(C)C(=O)[C@@H](NC(=O)c1ccc(N)cc1)C(C)C [Compound 103, 4-Abz-Val-Dil-Dap-Phe] | – | – | 43 | > 100 | –
3 | CC[C@H](C)[C@@H]([C@@H](CC(=O)N1CCC[C@H]1[C@H](OC)[C@@H](C)C(=O)N[C@@H](Cc1ccccc1)C(=O)OC)OC)N(C)C(=O)[C@@H](NC(=O)c1ccc(N)cc1)C(C)C [Compound 107, 4-Abz-Val-Dil-Dap-Phe-OMe] | – | – | 0.12 | 0.003 | –
4 | CC[C@H](C)[C@@H]([C@@H](CC(=O)N1CCC[C@H]1[C@H](OC)[C@@H](C)C(=O)N[C@H](C)[C@@H](O)c1ccccc1)OC)N(C)C(=O)[C@@H](NC(=O)[C@@H](NC)C(C)C)C(C)C [MMAE, mono-methyl auristatin E, reference compound] (H-[NMeV]V[Dil][Dolaproine]-X1) | 0.13 | 0.8 | – | – | –
5 | cAC10-vc-MMAF: cAC10 Conjugate with Val-Cit linker and MMAF, average 4 drugs per antibody [reference compound] | – | – | – | – | 0.75
6 | CC[C@H](C)[C@@H]([C@@H](CC(=O)N1CCC[C@H]1[C@H](OC)[C@@H](C)C(=O)N[C@@H](Cc1ccccc1)C(=O)OC(C)(C)C)OC)N(C)C(=O)[C@@H](NC(=O)c1ccc(N)cc1)C(C)C [Compound 100, 4-Abz-Val-Dil-Dap-Phe-OtBu] | – | – | 1.8 | 17.8 | –
